As a reminder, the MIC is the smallest concentration in the dilution series that meets the test's criterion for growth inhibition. Broadly, the solubility is the dissolved amount per volume that the medium holds. Low values mean a poorly soluble substance, high ones a readily soluble substance.

The test system of series [1] is Klebsiella pneumoniae ATCC 8308. The series can be described thus: minimum inhibitory concentration (agar plate growth inhibition). It is filed as cell-based. How it is done: (§1) The mixture or composition prepared as in Example 1 was tested to determine the minimum inhibitory concentration (MIC) of the composition against various microorganisms (i.e., bacteria, yeast and fungi) according to the following procedure:
(§2) (1) Tryptic Soy Agar (TSA) was prepared according to the manufacturer's directions by suspending 40 g TSA in cold deionized water (1 liter). The suspension was heated to boiling in order to dissolve completely and then autoclaved for 15 minutes at 15 pounds pressure at 121° C.
(§3) (2) After autoclaving, the media was cooled to 45° C. in a water bath.
(§4) (3) At this point, the mixture was aseptically added to the TSA at different levels in order to obtain the desired test concentrations.
(§5) (1) The bacteria and yeast inoculum consisted of 0.1 ml of a 1:100 saline dilution of an overnight TSB broth culture (10-10 CFU/ml). CFU=Colony Forming Units.
(§6) (3) A sterile Dacron swab was used to spread the inoculum evenly over the entire agar surface.
(§7) (1) The bacteria and yeast plates were incubated at 35° C. for 48 hours.

Series [2] deals with Pseudomonas aeruginosa ATCC 9027. Described as above. It is filed as cell-based. How it is done:
as §1, §2, §3, §4, §5, §6, §7

The test system of series [3] is Enterobacter cloacae ATCC 23355. The description is as above. The series is classed as cell-based. How it is done: as §1, §2, §3, §4, §5, §6, §7
Series [4] relates to Staphylococcus aureus ATCC 6538. The description is as above. The series is classed as cell-based. How it is done: as §1, §2, §3, §4, §5, §6, §7
The next series deals with Pseudomonas stutzeri. The series is described as above. It is filed as cell-based. Particulars: Stutzerimonas stutzeri, 48 h. How it is done:
as §1, §2, §3, §4, §5, §6, §7

Series [5] concerns Proteus vulgaris ATCC 13315. The description is as above. It is filed as cell-based. How it is done:
as §1, §2, §3, §4, §5, §6, §7

Series [6] relates to Salmonella typhosa ATCC 6539. The series is described as above. The series is classed as cell-based. Particulars: Salmonella enterica, 48 h. How it is done:
as §1, §2, §3, §4, §5, §6, §7

Another series relates to Streptococcus faecalis. Described as above. The series is classed as cell-based. Particulars: Enterococcus faecalis, 48 h. The protocol:
as §1, §2, §3, §4, §5, §6, §7

Series [7] deals with Candida albicans ATCC 10231. The description is as above. The series is classed as cell-based. How it is done: as §1, §2, §3, §4, §5, §6, §7
Series [8] concerns Bacillus subtilis ATCC 6633. The series is described as above. It is filed as cell-based. The protocol:
as §1, §2, §3, §4, §5, §6, §7

Series [9] has as its system Pseudomonas aeruginosa ATCC 15442. Described as above. It is filed as cell-based. The protocol:
as §1, §2, §3, §4, §5, §6, §7

For series [10], the system named is Escherichia coli ATCC 8739. The description is as above. The series is classed as cell-based. The protocol: as §1, §2, §3, §4, §5, §6, §7
Another series deals with Saccharomyces cerevisiae. The series is described as above. Particulars: 48 h. The series is classed as cell-based. How it is done: as §1, §2, §3, §4, §5, §6, §7
Series [11] concerns Pseudomonas aeruginosa ATCC 14502. Described as above. It is filed as cell-based. How it is done:
as §1, §2, §3, §4, §5, §6, §7

The test system of series [12] is Pseudomonas aeruginosa ATCC 13388. The series is described as above. It is filed as cell-based. The protocol: as §1, §2, §3, §4, §5, §6, §7
Series [13] deals with Serratia marcescens ATCC 8100. The description is as above. It is filed as cell-based. The protocol:
as §1, §2, §3, §4, §5, §6, §7

In series [14] the test system is Staphylococcus epidermidis ATCC 1228. Described as above. The series is classed as cell-based. The protocol:
as §1, §2, §3, §4, §5, §6, §7

Series [15] concerns Trichophyton mentagrophytes. The series is described as above. The series is classed as cell-based. How it is done:
as §1, §2, §3, §4
(§8) (2) The fungus inoculum consisted of 0.1 ml of a spore-saline suspension harvested by gently rubbing the spores from a 1-week old Sabourand dextrose agar slant incubated at 25° C. with sterile saline (10-10 CFU/ml).
as §6
(§9) (2) The fungus plates were incubated at 30° C. for 72-96 hours.

Series [16] concerns Penicillium chrysogenum ATCC 9480. Described as above. The series is classed as cell-based. The protocol:
as §1, §2, §3, §4, §8, §6, §9

Series [17] deals with Aspergillus niger ATCC 9642. The series is described as above. The series is classed as cell-based. The protocol: as §1, §2, §3, §4, §8, §6, §9
The next series is described as follows: physchem. Particulars: water.
[18] abbreviates: ATCC8308, TSA, 35° C., 48 h, read-out: MIC.
[19] abbreviates: ATCC9027, TSA, 35° C., 48 h, read-out: MIC.
Setting [20] is: ATCC23355, TSA, 35° C., 48 h, read-out: MIC.
[21] abbreviates: ATCC6538, TSA, 35° C., 48 h, read-out: MIC.
Where [22] appears, read: ATCC13315, TSA, 35° C., 48 h, read-out: MIC.
Where [23] appears, read: ATCC10231, TSA, 35° C., 48 h, read-out: MIC.
The mark [24] stands for this setting: ATCC6633, TSA, 35° C., 48 h, read-out: MIC.
[25] abbreviates: ATCC15442, TSA, 35° C., 48 h, read-out: MIC.
[26] abbreviates: ATCC8739, TSA, 35° C., 48 h, read-out: MIC.
Where [27] appears, read: ATCC14502, TSA, 35° C., 48 h, read-out: MIC.
[28] abbreviates: ATCC13388, TSA, 35° C., 48 h, read-out: MIC.
[29] abbreviates: ATCC8100, TSA, 35° C., 48 h, read-out: MIC.
Where [30] appears, read: ATCC1228, TSA, 35° C., 48 h, read-out: MIC.
The mark [31] stands for this setting: TSA, 30° C., 72-96 h, read-out: MIC.
[32] abbreviates: ATCC9480, TSA, 30° C., 72-96 h, read-out: MIC.
Setting [33] is: ATCC9642, TSA, 30° C., 72-96 h, read-out: MIC.

≈ marks a conversion by molar mass, not a printed value. Like-named read-outs stand apart in the source and are kept apart here. Where only a bound is given, the exact number is not on record here.

Take `CC(C)COC(=O)c1ccc(O)cc1` [Isobutyl p-Hydroxybenzoate, isobutyl p-hydroxybenzoate]: the MIC in [1] (setting [18]) is 500 µg/mL (≈ 2570 µM); in series [2] (setting [19]), greater than 1000 µg/mL; in [3] (setting [20]), 1000 µg/mL (≈ 5150 µM); in [4] (setting [21]), 250 µg/mL (≈ 1290 µM); in the series on Pseudomonas stutzeri (TSA, 35° C., read-out: MIC), greater than 1000 µg/mL; in series [5] (setting [22]), 250 µg/mL (≈ 1290 µM). Moreover, the minimal inhibitory concentration (MIC) was 1000 µg/mL (≈ 5150 µM) in series [6]; 500 µg/mL (≈ 2570 µM) with Streptococcus faecalis (TSA, 35° C., read-out: MIC); 125 µg/mL (≈ 644 µM) in [7] (setting [23]); 250 µg/mL (≈ 1290 µM) in [8] (setting [24]); greater than 1000 µg/mL in series [9] (setting [25]); greater than 1000 µg/mL in [10] (setting [26]). The MIC in the series with Saccharomyces cerevisiae (TSA, 35° C., read-out: MIC) was 125 µg/mL (≈ 644 µM); in series [11] (setting [27]), greater than 1000 µg/mL; in series [12] (setting [28]), greater than 1000 µg/mL; in series [13] (setting [29]), 1000 µg/mL (≈ 5150 µM); in series [14] (setting [30]) it was 250 µg/mL (≈ 1290 µM); in [15] (setting [31]) it was 63 µg/mL (≈ 324 µM). Further, the minimal inhibitory concentration (MIC) was 125 µg/mL (≈ 644 µM) in series [16] (setting [32]) and 250 µg/mL (≈ 1290 µM) in [17] (setting [33]). The molecule further came in with a solubility in the series “physchem” of 200 µg/mL (≈ 1030 µM).
For `CC(C)OC(=O)c1ccc(O)cc1` [Isopropyl p-Hydroxybenzoate, isopropyl p-hydroxybenzoate], the MIC came to 500 µg/mL (≈ 2770 µM) in series [1] (setting [18]); 2000 µg/mL (≈ 11100 µM) in [2] (setting [19]); 1000 µg/mL (≈ 5550 µM) in [3] (setting [20]); 1000 µg/mL (≈ 5550 µM) in [4] (setting [21]); 1000 µg/mL (≈ 5550 µM) in the series with Pseudomonas stutzeri (TSA, 35° C., read-out: MIC); 500 µg/mL (≈ 2770 µM) in series [5] (setting [22]). Further, the MIC is 1000 µg/mL (≈ 5550 µM) in [6]; 1000 µg/mL (≈ 5550 µM) in the series on Streptococcus faecalis (TSA, 35° C., read-out: MIC); 250 µg/mL (≈ 1390 µM) in series [7] (setting [23]); 500 µg/mL (≈ 2770 µM) in [8] (setting [24]); greater than 2000 µg/mL in [9] (setting [25]); 1000 µg/mL (≈ 5550 µM) in [10] (setting [26]). Moreover, the minimal inhibitory concentration (MIC) in the series with Saccharomyces cerevisiae (TSA, 35° C., read-out: MIC) was less than 125 µg/mL; in [11] (setting [27]), greater than 2000 µg/mL; in series [12] (setting [28]), greater than 2000 µg/mL; in series [13] (setting [29]), 1000 µg/mL (≈ 5550 µM); in series [14] (setting [30]), 500 µg/mL (≈ 2770 µM); in series [15] (setting [31]), less than 125 µg/mL. In addition, the MIC in series [16] (setting [32]) is less than 125 µg/mL; in [17] (setting [33]), 250 µg/mL (≈ 1390 µM). The solubility in the series “physchem” was 800 µg/mL (≈ 4440 µM).
As to `CCCCOC(=O)c1ccc(O)cc1` [n-Butyl p-Hydroxybenzoate, n-butyl p-hydroxybenzoate], the minimal inhibitory concentration (MIC) in series [1] (ATCC8308, 48 h) was 250 µg/mL (≈ 1290 µM); in series [2] (ATCC9027, 48 h) it was greater than 6000 µg/mL; in series [3] (ATCC23355, 48 h) it was 250 µg/mL (≈ 1290 µM); in series [4] (ATCC6538, 48 h), 125 µg/mL (≈ 644 µM); against Pseudomonas stutzeri it was 500 µg/mL (≈ 2570 µM); in series [5] (ATCC13315, 48 h), 125 µg/mL (≈ 644 µM). Besides, the MIC is 500 µg/mL (≈ 2570 µM) in [6]; 250 µg/mL (≈ 1290 µM) against Streptococcus faecalis; 125 µg/mL (≈ 644 µM) in series [7] (ATCC10231, 48 h); 250 µg/mL (≈ 1290 µM) in [8] (ATCC6633, 48 h); greater than 6000 µg/mL in series [9] (ATCC15442, 48 h); 500 µg/mL (≈ 2570 µM) in series [10] (ATCC8739, 48 h). Moreover, the MIC is 32 µg/mL (≈ 165 µM) with Saccharomyces cerevisiae; greater than 6000 µg/mL in series [11] (ATCC14502, 48 h); greater than 6000 µg/mL in [12] (ATCC13388, 48 h); 500 µg/mL (≈ 2570 µM) in [13] (ATCC8100, 48 h); 250 µg/mL (≈ 1290 µM) in series [14] (ATCC1228, 48 h); 32 µg/mL (≈ 165 µM) in series [15]. Moreover, the MIC worked out at 63 µg/mL (≈ 324 µM) in series [16] (ATCC9480) and 125 µg/mL (≈ 644 µM) in series [17] (ATCC9642). The amount in solution in “water solubility” (solubility) came to 150 µg/mL (≈ 772 µM).
